Experiments:
[1] = target: T1, YES (Homo sapiens, UniProt P07947); assay: KINOMEScan; type: binding; conditions: read-out: Percent Control
T1 construct: purchased Eurofins DiscoverX (KINOMEScan service)

[2] = target: T2, ABL1(F317L)-phosphorylated (Homo sapiens, UniProt P00519, F317L); assay: KINOMEScan; type: binding; conditions: read-out: Percent Control
T2 construct: purchased Eurofins DiscoverX
Description: (§2) Percent control was mapped onto the kinome tree using TREEspot.

[3] = target: T3, ADCK3 (Homo sapiens, UniProt Q8NI60); assay: KINOMEScan; type: binding; conditions: ADCK3, 1 µM; read-out: Percent Control
T3 construct: purchased Eurofins DiscoverX (KINOMEscan)
T3 sequence (Q8NI60 163-647): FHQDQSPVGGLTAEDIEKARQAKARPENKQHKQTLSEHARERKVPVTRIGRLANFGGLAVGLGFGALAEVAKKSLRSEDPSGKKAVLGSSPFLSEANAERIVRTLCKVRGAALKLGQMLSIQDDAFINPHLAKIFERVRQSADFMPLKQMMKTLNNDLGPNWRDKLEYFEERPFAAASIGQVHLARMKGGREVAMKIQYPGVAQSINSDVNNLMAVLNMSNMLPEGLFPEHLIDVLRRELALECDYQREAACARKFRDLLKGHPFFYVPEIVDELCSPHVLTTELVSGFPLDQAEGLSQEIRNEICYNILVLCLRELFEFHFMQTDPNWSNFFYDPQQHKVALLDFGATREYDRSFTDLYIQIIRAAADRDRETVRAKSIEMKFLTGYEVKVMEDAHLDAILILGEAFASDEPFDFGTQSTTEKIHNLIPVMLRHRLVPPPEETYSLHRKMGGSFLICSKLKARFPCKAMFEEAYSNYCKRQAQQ
Description: as §2

[4] = target: T4, PIKFYVE (Homo sapiens, UniProt Q9Y2I7); assay: KINOMEScan; type: binding; conditions: read-out: Percent Control
T4 construct: purchased Eurofins DiscoverX (KINOMEScan service)

[5] = target: T5, BRAF(V600E) (Homo sapiens, UniProt P15056, V600E); assay: KINOMEScan; type: binding; conditions: read-out: Percent Control
T5 construct: purchased Eurofins DiscoverX (KINOMEscan)
T5 sequence (P15056 whole entry V600E): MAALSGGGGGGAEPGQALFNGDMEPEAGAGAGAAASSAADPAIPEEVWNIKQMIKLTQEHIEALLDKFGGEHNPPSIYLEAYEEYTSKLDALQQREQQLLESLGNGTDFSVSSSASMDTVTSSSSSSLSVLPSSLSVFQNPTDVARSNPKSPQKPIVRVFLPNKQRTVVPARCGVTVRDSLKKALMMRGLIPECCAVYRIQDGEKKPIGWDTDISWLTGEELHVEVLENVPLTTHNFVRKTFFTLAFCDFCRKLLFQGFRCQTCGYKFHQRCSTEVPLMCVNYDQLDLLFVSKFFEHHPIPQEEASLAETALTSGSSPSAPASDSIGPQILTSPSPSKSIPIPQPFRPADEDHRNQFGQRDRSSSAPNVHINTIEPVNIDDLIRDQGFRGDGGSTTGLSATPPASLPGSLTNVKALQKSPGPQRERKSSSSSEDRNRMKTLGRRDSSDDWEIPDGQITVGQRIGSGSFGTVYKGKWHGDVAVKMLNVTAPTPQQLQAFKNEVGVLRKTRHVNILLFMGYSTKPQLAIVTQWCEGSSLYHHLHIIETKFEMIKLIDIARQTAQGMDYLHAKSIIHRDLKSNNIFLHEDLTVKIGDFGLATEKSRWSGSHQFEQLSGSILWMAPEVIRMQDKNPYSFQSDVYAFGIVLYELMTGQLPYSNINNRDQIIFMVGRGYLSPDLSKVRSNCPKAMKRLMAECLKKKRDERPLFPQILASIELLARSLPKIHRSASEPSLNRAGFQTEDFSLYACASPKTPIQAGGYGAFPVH
Description: as §2

[6] = target: T6, ABL2 (Homo sapiens, UniProt P42684); assay: KINOMEScan; type: binding; conditions: ABL2, 1 µM; read-out: Percent Control
T6 construct: purchased Eurofins DiscoverX
T6 sequence (P42684 whole entry): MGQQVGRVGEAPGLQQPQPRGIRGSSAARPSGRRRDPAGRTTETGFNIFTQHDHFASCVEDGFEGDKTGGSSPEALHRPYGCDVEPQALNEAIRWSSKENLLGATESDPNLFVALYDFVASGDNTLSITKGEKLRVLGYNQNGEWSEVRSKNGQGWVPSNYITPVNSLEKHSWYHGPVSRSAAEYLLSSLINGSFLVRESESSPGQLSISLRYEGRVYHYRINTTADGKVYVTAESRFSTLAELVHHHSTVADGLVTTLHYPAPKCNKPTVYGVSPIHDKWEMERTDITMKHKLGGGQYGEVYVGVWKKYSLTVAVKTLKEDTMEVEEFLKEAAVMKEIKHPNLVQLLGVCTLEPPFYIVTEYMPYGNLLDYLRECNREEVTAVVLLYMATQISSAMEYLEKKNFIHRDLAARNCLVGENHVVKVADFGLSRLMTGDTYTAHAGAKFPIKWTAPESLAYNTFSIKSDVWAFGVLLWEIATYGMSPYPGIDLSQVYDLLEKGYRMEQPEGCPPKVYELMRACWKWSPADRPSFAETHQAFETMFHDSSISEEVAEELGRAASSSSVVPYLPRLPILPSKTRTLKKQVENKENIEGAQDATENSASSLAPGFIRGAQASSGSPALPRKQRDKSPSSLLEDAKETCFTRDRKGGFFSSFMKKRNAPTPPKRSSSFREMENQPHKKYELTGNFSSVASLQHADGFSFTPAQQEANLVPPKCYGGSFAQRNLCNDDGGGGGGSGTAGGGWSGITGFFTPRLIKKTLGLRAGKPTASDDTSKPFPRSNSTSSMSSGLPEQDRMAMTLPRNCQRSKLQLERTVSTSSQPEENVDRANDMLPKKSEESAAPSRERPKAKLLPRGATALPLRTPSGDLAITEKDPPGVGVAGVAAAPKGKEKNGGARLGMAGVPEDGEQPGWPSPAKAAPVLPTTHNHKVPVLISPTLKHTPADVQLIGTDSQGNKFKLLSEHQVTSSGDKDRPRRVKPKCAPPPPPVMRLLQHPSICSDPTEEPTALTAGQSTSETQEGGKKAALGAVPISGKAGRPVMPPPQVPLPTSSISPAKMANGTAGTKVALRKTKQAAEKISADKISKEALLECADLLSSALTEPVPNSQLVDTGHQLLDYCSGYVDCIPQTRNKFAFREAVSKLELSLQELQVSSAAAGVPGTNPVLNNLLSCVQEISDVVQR
Description: as §2

[7] = target: T7, BMPR2 (Homo sapiens, UniProt Q13873); assay: KINOMEScan; type: binding; conditions: BMPR2, 1 µM; read-out: Percent Control
T7 construct: purchased Eurofins DiscoverX (KINOMEscan)
T7 sequence (Q13873 27-1038): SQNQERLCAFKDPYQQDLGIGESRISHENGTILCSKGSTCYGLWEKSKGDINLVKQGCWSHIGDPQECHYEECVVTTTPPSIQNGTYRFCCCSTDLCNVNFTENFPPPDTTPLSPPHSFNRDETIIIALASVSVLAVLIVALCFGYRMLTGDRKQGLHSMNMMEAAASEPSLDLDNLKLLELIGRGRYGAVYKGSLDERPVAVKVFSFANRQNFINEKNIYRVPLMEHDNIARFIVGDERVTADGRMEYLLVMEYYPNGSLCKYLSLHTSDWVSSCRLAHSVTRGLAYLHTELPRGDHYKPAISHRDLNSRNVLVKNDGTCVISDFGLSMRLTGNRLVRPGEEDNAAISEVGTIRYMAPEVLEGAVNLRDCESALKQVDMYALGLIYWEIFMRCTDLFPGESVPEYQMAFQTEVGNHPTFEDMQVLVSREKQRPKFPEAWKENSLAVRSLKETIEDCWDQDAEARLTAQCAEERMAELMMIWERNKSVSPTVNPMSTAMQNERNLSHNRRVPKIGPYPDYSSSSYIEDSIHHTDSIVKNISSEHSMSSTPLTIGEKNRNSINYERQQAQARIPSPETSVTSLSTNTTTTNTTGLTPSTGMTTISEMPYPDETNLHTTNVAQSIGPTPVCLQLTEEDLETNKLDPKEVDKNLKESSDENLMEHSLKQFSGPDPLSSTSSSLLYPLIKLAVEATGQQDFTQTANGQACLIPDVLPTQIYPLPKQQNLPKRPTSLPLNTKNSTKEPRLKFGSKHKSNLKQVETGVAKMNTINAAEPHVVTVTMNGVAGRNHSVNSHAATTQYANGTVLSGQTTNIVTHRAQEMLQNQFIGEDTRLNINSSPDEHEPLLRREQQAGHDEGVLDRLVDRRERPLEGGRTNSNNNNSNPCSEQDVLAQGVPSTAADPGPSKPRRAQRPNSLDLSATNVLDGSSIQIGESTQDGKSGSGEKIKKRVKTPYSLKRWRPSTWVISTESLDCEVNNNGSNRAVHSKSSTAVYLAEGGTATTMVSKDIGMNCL
Description: as §2

[8] = target: T8, ANKK1 (Homo sapiens, UniProt Q8NFD2); assay: KINOMEScan; type: binding; conditions: ANKK1, 1 µM; read-out: Percent Control
T8 construct: purchased Eurofins DiscoverX (KINOMEscan)
Description: as §2

[9] = target: T9, ACVR2B (Homo sapiens, UniProt Q13705); assay: KINOMEScan; type: binding; conditions: read-out: Percent Control
T9 construct: purchased Eurofins DiscoverX (KINOMEscan)
T9 sequence (Q13705 19-512): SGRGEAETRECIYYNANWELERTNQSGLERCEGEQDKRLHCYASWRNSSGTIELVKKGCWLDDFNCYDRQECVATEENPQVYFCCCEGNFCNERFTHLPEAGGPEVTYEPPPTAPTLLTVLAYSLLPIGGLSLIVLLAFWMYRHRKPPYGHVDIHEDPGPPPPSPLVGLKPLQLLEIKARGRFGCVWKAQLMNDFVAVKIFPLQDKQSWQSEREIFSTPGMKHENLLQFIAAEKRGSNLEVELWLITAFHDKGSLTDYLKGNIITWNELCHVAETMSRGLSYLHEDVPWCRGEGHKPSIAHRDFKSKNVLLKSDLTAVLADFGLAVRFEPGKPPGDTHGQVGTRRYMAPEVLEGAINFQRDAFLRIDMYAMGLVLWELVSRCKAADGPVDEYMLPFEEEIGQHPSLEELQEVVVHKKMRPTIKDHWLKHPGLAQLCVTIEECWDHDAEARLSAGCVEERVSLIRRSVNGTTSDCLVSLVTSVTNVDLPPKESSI
Description: as §2

[10] = target: T10, YANK2 (Homo sapiens, UniProt Q9NY57); assay: KINOMEScan; type: binding; conditions: YANK2, 1 µM; read-out: Percent Control
T10 construct: purchased Eurofins DiscoverX (KINOMEScan service)
T10 sequence (Q9NY57 whole entry): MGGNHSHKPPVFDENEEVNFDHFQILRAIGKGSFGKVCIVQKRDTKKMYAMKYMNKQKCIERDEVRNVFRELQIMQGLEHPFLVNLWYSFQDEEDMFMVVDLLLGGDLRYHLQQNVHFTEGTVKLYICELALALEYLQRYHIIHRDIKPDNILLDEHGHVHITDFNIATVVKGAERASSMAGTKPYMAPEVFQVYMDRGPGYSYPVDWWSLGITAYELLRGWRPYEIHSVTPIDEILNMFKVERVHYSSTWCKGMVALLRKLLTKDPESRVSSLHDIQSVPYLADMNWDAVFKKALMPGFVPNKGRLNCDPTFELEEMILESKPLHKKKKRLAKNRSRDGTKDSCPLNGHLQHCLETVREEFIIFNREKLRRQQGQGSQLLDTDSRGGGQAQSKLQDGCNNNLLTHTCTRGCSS
Description: as §2

[11] = target: T11, BRSK2 (Homo sapiens, UniProt Q8IWQ3); assay: KINOMEScan; type: binding; conditions: BRSK2, 1 µM; read-out: Percent Control
T11 construct: purchased Eurofins DiscoverX (KINOMEscan)
Description: as §2

[12] = system: TA1535; assay: Background bacterial cytotoxicity assay; parameters: species or system Salmonella; key to Flag: A cytotoxicity value of less than 60% is flagged and the compound is considered as toxic (denoted as Cytox.); A hyphen (-) denotes no cytotoxicity at the respective concentration
Description: (§1) Compounds were assessed for mutagenicity at the Eurofins Panlabs in 384-well plates using four Salmonella strains: TA98, to probe for frameshift mutation (with quercetin as control), TA100 and TA1535, to probe for base pair insertions/deletions (with streptozotocin as control), and TA1537, to probe for frameshift mutations (with aminacridine as control) as previously described.[78] Each compound was incubated at 37 °C for 96 h at four different concentrations (5, 10, 50, and 100 μM), with each concentration tested using 48 replicates, both with and without rat liver S9 metabolic activation. A concurrent bacterial cytotoxicity assay was run at 0.6, 1.2, 2.5, 5, 10, 25, 50, and 100 μM to rule out false negatives. Bacterial cytotoxicity was expressed as percent of control growth (OD650). Compounds with growth of less than 60% control were flagged and considered bacterial cytotoxic. […] Significances of the positive counts between the treatment and control were determined using a one-tailed Fisher’s exact test.

[13] = system: TA98; assay: Background bacterial cytotoxicity assay; parameters: species or system Salmonella; key to Flag: A cytotoxicity value of less than 60% is flagged and the compound is considered as toxic (denoted as Cytox.); A hyphen (-) denotes no cytotoxicity at the respective concentration
Description: as §1

[14] = system: TA100; assay: Background bacterial cytotoxicity assay; parameters: species or system Salmonella; key to Flag: A cytotoxicity value of less than 60% is flagged and the compound is considered as toxic (denoted as Cytox.); A hyphen (-) denotes no cytotoxicity at the respective concentration
Description: as §1

[15] = system: TA1537; assay: Background bacterial cytotoxicity assay; parameters: species or system Salmonella; key to Flag: A cytotoxicity value of less than 60% is flagged and the compound is considered as toxic (denoted as Cytox.); A hyphen (-) denotes no cytotoxicity at the respective concentration
Description: as §1

[16] = target: T12, CYP2C9 (Homo sapiens, UniProt P11712); type: in vitro ADME; conditions: liver microsomes
T12 construct: tissue BD Gentest; host or cells: pooled human liver microsomes
Description: The activities tested were CYP1A2-mediated phenacetin O-demethylation, CYP2C19-mediated (S)-mephenyotin 4′-hydroxylation, CYP2C9-mediated diclofenac 4′-hydroxylation, CYP2D6-mediated dextromethorphan O-demethylation, and CYP3A4-mediated midazolam 1′-hydroxylation. […] The reactions were initiated by adding NADPH (1 mM final concentration) after a 5 min preincubation, and the assay was run in duplicate (n = 2). Samples were analyzed by ultra-performance liquid chromatography tandem mass spectrometry (UPLC-MS/MS).

[17] = target: T13, ABL1(Q252H)-nonphosphorylated (Homo sapiens, UniProt P00519, Q252H); assay: KINOMEScan; type: binding; conditions: read-out: Percent Control
T13 construct: purchased Eurofins DiscoverX
Description: as §2

T1 sequence (P07947 whole entry): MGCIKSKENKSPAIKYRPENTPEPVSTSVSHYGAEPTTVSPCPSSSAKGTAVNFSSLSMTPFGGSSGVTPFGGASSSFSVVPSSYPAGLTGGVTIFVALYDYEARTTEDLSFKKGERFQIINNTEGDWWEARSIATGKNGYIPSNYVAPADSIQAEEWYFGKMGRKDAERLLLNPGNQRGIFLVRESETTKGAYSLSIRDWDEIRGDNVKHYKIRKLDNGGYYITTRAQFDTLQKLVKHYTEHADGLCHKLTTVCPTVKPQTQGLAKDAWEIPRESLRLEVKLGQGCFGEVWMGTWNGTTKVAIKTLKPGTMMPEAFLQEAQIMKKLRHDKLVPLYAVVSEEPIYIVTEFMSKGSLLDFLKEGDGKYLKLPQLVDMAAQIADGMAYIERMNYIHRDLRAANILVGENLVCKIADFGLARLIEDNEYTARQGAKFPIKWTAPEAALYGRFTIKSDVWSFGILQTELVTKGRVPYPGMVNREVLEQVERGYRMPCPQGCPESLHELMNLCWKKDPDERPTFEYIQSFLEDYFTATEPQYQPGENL

COc1cc2ncnc(Nc3cccc(Cl)c3F)c2cc1OCCON1CCN(C)CC1 [Compound 9, N-(3-Chloro-2-fluorophenyl)-7-methoxy-6-(2-((4-methylpiperazin-1-yl)oxy)ethoxy)quinazolin-4-amine]
remaining binding at 1 µM [1]: 59% | remaining binding at 1 µM [2]: 4% | remaining binding at 1 µM [3]: 90% | remaining binding at 1 µM [4]: 1.6% | remaining binding at 1 µM [5]: 82% | remaining binding at 1 µM [6]: 64% | remaining binding at 1 µM [7]: 99% | remaining binding at 1 µM [8]: 97% | remaining binding at 1 µM [9]: 100% | remaining binding at 1 µM [10]: 93% | remaining binding at 1 µM [11]: 74% | Flag ([12]; TA1535-S9, 1.0E-04 M): - | Mean % Control (n = 3) ([12]; TA1535-S9, 1.0E-04 M): 78.4% | Flag ([12]; TA1535-S9, 1.0E-05 M): - | Mean % Control (n = 3) ([12]; TA1535-S9, 1.0E-05 M): 99.4% | Flag ([12]; TA1535-S9, 1.2E-06 M): - | Mean % Control (n = 3) ([12]; TA1535-S9, 1.2E-06 M): 120.4% | Flag ([12]; TA1535-S9, 2.5E-05 M): - | Mean % Control (n = 3) ([12]; TA1535-S9, 2.5E-05 M): 97.6% | Flag ([12]; TA1535-S9, 2.5E-06 M): - | Mean % Control (n = 3) ([12]; TA1535-S9, 2.5E-06 M): 101.2% | Flag ([12]; TA1535-S9, 5.0E-05 M): - | Mean % Control (n = 3) ([12]; TA1535-S9, 5.0E-05 M): 85.7% | Flag ([12]; TA1535-S9, 5.0E-06 M): - | Mean % Control (n = 3) ([12]; TA1535-S9, 5.0E-06 M): 108.1% | Flag ([12]; TA1535-S9, 6.0E-07 M): - | Mean % Control (n = 3) ([12]; TA1535-S9, 6.0E-07 M): 98.9% | Flag ([13]; TA98-S9, 1.0E-04 M): - | Mean % Control (n = 3) ([13]; TA98-S9, 1.0E-04 M): 84.2% | Flag ([13]; TA98-S9, 1.0E-05 M): - | Mean % Control (n = 3) ([13]; TA98-S9, 1.0E-05 M): 91.1% | Flag ([13]; TA98-S9, 1.2E-06 M): - | Mean % Control (n = 3) ([13]; TA98-S9, 1.2E-06 M): 92.3% | Flag ([13]; TA98-S9, 2.5E-05 M): - | Mean % Control (n = 3) ([13]; TA98-S9, 2.5E-05 M): 94.8% | Flag ([13]; TA98-S9, 2.5E-06 M): - | Mean % Control (n = 3) ([13]; TA98-S9, 2.5E-06 M): 91.7% | Flag ([13]; TA98-S9, 5.0E-05 M): - | Mean % Control (n = 3) ([13]; TA98-S9, 5.0E-05 M): 87.8% | Flag ([13]; TA98-S9, 5.0E-06 M): - | Mean % Control (n = 3) ([13]; TA98-S9, 5.0E-06 M): 95.7% | Flag ([13]; TA98-S9, 6.0E-07 M): - | Mean % Control (n = 3) ([13]; TA98-S9, 6.0E-07 M): 89.0% | Flag ([14]; TA100-S9, 1.0E-04 M): Cytox. (A cytotoxicity value of less than 60% is flagged and the compound is considered as toxic (denoted as Cytox.)) | Mean % Control (n = 3) ([14]; TA100-S9, 1.0E-04 M): 34.0% | Flag ([14]; TA100-S9, 1.0E-05 M): - | Mean % Control (n = 3) ([14]; TA100-S9, 1.0E-05 M): 90.3% | Flag ([14]; TA100-S9, 1.2E-06 M): - | Mean % Control (n = 3) ([14]; TA100-S9, 1.2E-06 M): 91.2% | Flag ([14]; TA100-S9, 2.5E-05 M): - | Mean % Control (n = 3) ([14]; TA100-S9, 2.5E-05 M): 80.9% | Flag ([14]; TA100-S9, 2.5E-06 M): - | Mean % Control (n = 3) ([14]; TA100-S9, 2.5E-06 M): 89.5% | Flag ([14]; TA100-S9, 5.0E-05 M): - | Mean % Control (n = 3) ([14]; TA100-S9, 5.0E-05 M): 67.3% | Flag ([14]; TA100-S9, 5.0E-06 M): - | Mean % Control (n = 3) ([14]; TA100-S9, 5.0E-06 M): 93.2% | Flag ([14]; TA100-S9, 6.0E-07 M): - | Mean % Control (n = 3) ([14]; TA100-S9, 6.0E-07 M): 91.6% | Flag ([15]; TA1537-S9, 1.0E-04 M): - | Mean % Control (n = 3) ([15]; TA1537-S9, 1.0E-04 M): 60.3% | Flag ([15]; TA1537-S9, 1.0E-05 M): - | Mean % Control (n = 3) ([15]; TA1537-S9, 1.0E-05 M): 88.7% | Flag ([15]; TA1537-S9, 1.2E-06 M): - | Mean % Control (n = 3) ([15]; TA1537-S9, 1.2E-06 M): 98.4% | Flag ([15]; TA1537-S9, 2.5E-05 M): - | Mean % Control (n = 3) ([15]; TA1537-S9, 2.5E-05 M): 83.8% | Flag ([15]; TA1537-S9, 2.5E-06 M): - | Mean % Control (n = 3) ([15]; TA1537-S9, 2.5E-06 M): 90.5% | Flag ([15]; TA1537-S9, 5.0E-05 M): - | Mean % Control (n = 3) ([15]; TA1537-S9, 5.0E-05 M): 71.1% | Flag ([15]; TA1537-S9, 5.0E-06 M): - | Mean % Control (n = 3) ([15]; TA1537-S9, 5.0E-06 M): 98.8% | Flag ([15]; TA1537-S9, 6.0E-07 M): - | Mean % Control (n = 3) ([15]; TA1537-S9, 6.0E-07 M): 101.7% | IC50 [16]: > 30 µM | remaining binding at 1 µM [17]: 6.7%
